How the values were obtained:
[1] = system: ABAE cells; test: Induction of PS exposure, 125I-annexin V binding; format: cell-based, bovine; conditions: ABAE and bEnd.3 cells, immunohistochemically
Experimental: All reagents were diluted in medium containing 10% serum and incubated with the cells at 37° C. for 24 h.
To study the effect of hypoxia, cells were seeded on 24 well plates and were incubated in a humidified normoxic atmosphere (21% O2, 5% CO2) for 48 h before being transferred to a humidified hypoxic atmosphere (1% O2, 5% CO2, 94% N2) in a sealed chamber (Billups Rothenberg Inc., Del Mar, Ca). Cells were incubated in a hypoxic chamber for 24 h at 37° C. and were then returned to a normoxic environment for 4 h at 37° C. The cells were compared to a parallel culture from an identical passage, seeded on the same day and maintained entirely under normoxic conditions. In some studies, IL-1α (10 ng/ml) and TNFα (20 ng/ml) were added to the medium before transfer to the hypoxic chamber.
After treatment with the reagents described above, treated and control cells were incubated with 7.1 pmoles of ^125I-labeled annexin V (200 μl/well) in the binding buffer. After 2 h incubation at room temperature, cells were washed extensively and dissolved in 0.5 M of NaOH. The entire volume of 0.5 ml was transferred to plastic tubes and counted in a gamma counter. Non-specific binding was determined in the presence of 5 mM EDTA and was subtracted from experimental values. The results were expressed as net pmoles of cell-bound annexin V, normalized per 1×10^6 cells.
Maximal binding of annexin V was determined on cells simultaneously treated with actinomycin D and TNFα (50 ng/ml of each component). As has been previously reported, these agents cause apoptosis and PS exposure in 90-100% of endothelial cells (Lucas et al., 1998). Basal binding of ^125I-annexin V to untreated cells was determined in the presence of medium with 10% serum. The amount of ^125I-annexin V that bound to the untreated cultures was subtracted from that in the treated cultures. Exposure of PS was calculated according to the following formula: cell-bound annexin V (pmoles) under experimental conditions divided by maximal annexin V binding (pmoles), multiplied by 100. Each study was performed in duplicate and was performed at least three times. Mean values were calculated. The SE of the mean values from three separate experiments was less than 5%.

[2] = system: bEnd.3 endothelial cells; test: H2O2 induction of PS, anti-PS staining and Trypan Blue exclusion
[3] = system: drug-resistant breast tumors; test: 3G4 and cisplatin against drug-resistant breast tumors; format: in vivo, mouse; conditions: treated after day 20
Excerpt: Mice were inoculated with drug-resistant breast tumors and treated after day 20.

[4] = system: HUVEC and HMVEC; test: Docetaxel-induced PS exposure on endothelial cells, FACS; format: cell-based, human
Experimental: The induction of PS exposure on endothelial cells by subclinical concentrations of docetaxel was examined in vitro by FACS analysis. […] […] Docetaxel incubations for 48 and 72 hrs were also conducted.

[5] = system: 3LL, Colo26, MDA-MB-435, B16, Meth A cells; test: Docetaxel-induced PS exposure on tumor cell lines, FACS; format: cell-based, mouse, human; conditions: 10 nM, 24 hrs
Experimental: The in vitro induction of PS exposure by subclinical concentrations of docetaxel was also examined by FACS analysis using a panel of tumor cell lines. Mouse lewis lung carcinoma 3LL, mouse colon carcinoma Colo26 and human breast cancer MDA-MB-435 cells were treated with 10 nM of docetaxel for 24 hrs and examined by FACS. […] Docetaxel incubations for 48 and 72 hrs were also conducted.

[6] = system: tumor vessels; test: Docetaxel-induced PS exposure on tumor vessels; format: in vivo, mouse; conditions: after docetaxel treatment; 35% before
Excerpt: In such studies, docetaxel treatment of mice increased the percentage of tumor vessels that expose anionic phospholipids from 35% to 60%. No induction of PS was observed on vessels in normal tissues even after systemic treatment with docetaxel.

[7] = system: Pan02 mouse pancreatic adenocarcinoma; test: 3G4 and gemcitabine, pancreatic cancer; format: in vivo; conditions: 3G4 100 μg, gemcitabine 3.5 mg; day 22
Experimental: Pan02 mouse pancreatic adenocarcinoma cells were injected into the pancreas of immunocompetent C57BL/6 mice. Treatment was started on day 5 after tumor cell injection. […] Gemcitabine is a pyrimidine anti-metabolite. The animals were sacrificed at day 22 after tumor cell injection, and the tumor weight determined.

[8] = system: ABAE cells with exposed PS; test: Live-cell binding assay on LPC-treated endothelial cells; format: cell-based, bovine
Experimental: Adult bovine aortic endothelial (ABAE) cells were maintained in DMEM supplemented with 10% FBS and 2 mM L-glutamine. ABAE cells were removed from subconfluent cultures by brief exposure to 0.25% trypsin/0.02% EDTA, and 8-well chamber slides were seeded with 2×10^4 cells/well. Following overnight culture, cells were washed gently with PBS and treated with 200 μM lysophosphatidylcholine (LPC) to induce PS exposure.
PS exposure was determined by immunofluorescence staining. Cells were washed thoroughly in PBS, fixed in 4% paraformaldehyde (w/v), and incubated with a biotin-conjugated anti-mouse secondary antibody. Next, cells were incubated with FITC-conjugated streptavidin (Jackson Immunoresearch) to detect antibody binding. Cells were then permeablized with 0.1% Triton-X100 in PBS and counterstained with Texas Red-conjugated phalloidin (Molecular Probes, Eugene, Oreg.), and 4′, 6-diamidino-2-phenylindole (DAPI; Molecular Probes). Images were captured using a Coolsnap digital camera (Photometrics, Tucson, Ariz.) mounted on a Nikon microscope and processed with MetaVue software (Universal Imaging Corporation, Downingtown, Pa.).
The area of antibody binding was determined using MetaVue image analysis software, which is able to quantify the number of illuminated pixels in an image. Images of FITC fluorescence were used to quantify antibody binding. Corresponding images of DAPI fluorescence were used to normalize the FITC images for the number of cells present in the field. A small FITC/DAPI ratio indicates a small antibody binding area, whereas a large FITC/DAPI ratio indicates a large binding area. The FITC/DAPI ratios were used to determine increases or decreases in antibody binding area relative to a basal amount of antibody binding under the selected conditions. Five images at 200× magnification were used for each analysis. Data are presented as average relative FITC/DAPI ratios with error bars representing the standard deviation.
Cells were then washed, fixed, and stained with fluorescent markers to visualize binding of antibody to the cell surface.

[9] = Serum dependence of binding to PS
Experimental: The serum dependence or independence of the antibodies is also set forth in Table 2 (see also, Example XXX).
The 1B9, 2G7 and 7C5 antibodies behave essentially the same. These antibodies recognize only PS and require serum or serum proteins for binding to PS. The binding of 1B9, 2G7 and 7C5 to various phospholipids in the present example was assayed only in the presence of 10% bovine serum, whereas binding of the other antibodies was tested either in the absence or in the presence of serum.

[10] = Phospholipid specificity ELISA; format: binding
Experimental: The specificity of the antibodies was determined by ELISA using plates coated with the following phospholipids: PS, phosphatidylserine; PE, phosphatidylethanolamine; PI, phosphatidylinositol; PA, phosphatidic acid; PG, phosphatidylglycerol; PC, phosphatidylcholine; CL, cardiolipin; and SM, sphingomyelin.

[11] = Binding of ch3G4 and 2aG4 to phospholipid-coated ELISA plates; conditions: vs 3G4
[12] = system: WiDr (colon carcinoma); test: WiDr colon carcinoma model; format: in vivo, mouse; conditions: 100 μg 3×/week from day 5; preliminary study
Experimental: Treatment was started on day 5, when the tumors were small (10 mice per group). 100 μg of each antibody was injected 3×/week and tumor growth monitored.

Question: Which “cells that bound biotinylated annexin V” value [1] does the source give for OO [Hydrogen peroxide, hydrogen peroxide] here?
Answer: More than 70%

Question: What about the cell viability ([2]; H2O2 at high concentrations) of the same molecule?
Answer: 50-60%

Question: And the cell viability ([2]; low levels of H2O2, identical to untreated control)?
Answer: 95%

Question: With N.N.[Cl][Pt][Cl] [cisplatin, reference compound] as the molecule, how does the anti-tumor response [3] read?
Answer: tumor growth was slowed

Question: Which “externalization of anionic phospholipids on HUVEC” value ([4]; 20 pM) does the source give for CC(=O)O[C@@]12CO[C@@H]1C[C@H](O)[C@@]1(C)C(=O)[C@H](O)C3=C(C)[C@@H](OC(=O)[C@H](O)[C@@H](NC(=O)OC(C)(C)C)c4ccccc4)C[C@@](O)([C@@H](OC(=O)c4ccccc4)[C@H]21)C3(C)C [docetaxel] here?
Answer: caused anionic phospholipids to be externalized without inducing apoptosis

Question: And the “3G4 binding vs untreated cells” value ([4]; 10 nM, 24 hrs)?
Answer: significant increase in 3G4 binding

Question: What about the “3G4 binding vs untreated cells” value [5] of the same molecule?
Answer: significant increase in 3G4 binding

Question: What about the “tumor vessels that expose anionic phospholipids” value [6] of the same molecule?
Answer: 60%

Question: With Nc1ccn([C@@H]2O[C@H](CO)[C@@H](O)C2(F)F)c(=O)n1 [gemcitabine, reference compound] as the molecule, how does the “anti-tumor effect (tumor weight)” value [7] read?
Answer: significant anti-tumor effect

B1: nicked hβ2GPI: hβ2GPI cleaved by plasmin at Lys317/Thr318; non-lipid binding form (protein)
chain: GRTCPKPDDLPFSTVVPLKTFYEPGEEITYSCKPGYVSRGGMRKFICPLTGLWPINTLKCTPRVCPFAGILENGAVRYTTFEYPNTISFSCNTGFYLNGADSAKCTEEGKWSPELPVCAPIICPPPSIPTFATLRVYKPSAGNNSLYRDTAVFECLPQHAMFGNDTITCTTHGNWTKLPECREVKCPFPSRPDNGFVNYPAKPTLYYKDKATFGCHDGYSLDGPEEIECTKLGNWSAMPSCKASCKLPVKKATVVYQGERVKIQEKFKNGMLHGDKVSFFCKNKEKKCSYTEDAQCIDGTIEVPKCFKEHSSLAFWKTDASDVKPC
Question: With B1 as the molecule, how does the “mediation of ch3G4 binding to ABAE cells with exposed PS” value ([8]; 2 μg/ml, LPC) read?
Answer: not able to mediate binding

B2: 3G4 Fab′: Monovalent fragment of 3G4 (antibody)
VH: EVQLQQSGPELEKPGASVKLSCKASGYSFTGYNMNWVKQSHGKSLEWIGHIDPYYGDTSYNQKFRGKATLTVDKSSSTAYMQLKSLTSEDSAVYYCVKGGYYGHWYFDVWGAGTTVTVSSATTTAPSVYPLVP
light: DIQMTQSPSSLSASLGERVSLTCRASQDIGSSLNWLQQGPDGTIKRLIYATSSLDSGVPKRFSGSRSGSDYSLTISSLESEDFVDYYCLQYVSSPPTFGAGTKLELKRADAAPTVSIFPPSSEQLTSGGASVVCFLNNFYPKDINVKWKIDGSERQNGVLNSWTDQDSKDSTYSMSSTLTLTKDEYERHNSYTCEATHKTSTSPIVKSFNRNEC
Question: With B2 as the molecule, how does the “inhibition of ch3G4/β2GPI binding” value ([8]; 20 nM ch3G4, 40 nM hβ2GPI) read?
Answer: inhibited ch3G4/β2GPI binding to LPC-treated ABAE cells in a concentration-dependent manner

Question: What about the “binding to LPC-treated ABAE cells” value ([8]; 20 nM, DMEM+10% FBS) of the same molecule?
Answer: negligible

Question: What about the “binding to ABAE cells” value ([8]; 2 μM, 40 nM hβ2GPI) of the same molecule?
Answer: No binding

B3: 2aG4: Recombinant mouse IgG2a isotype of 3G4; SEQ ID NO:10 and 11 (antibody, listed as Mus musculus)
heavy: MGWTWIFILILSVTTGVHSEVQLQQSGPELEKPGASVKLSCKASGYSFTGYNMNWVKQSHGKSLEWIGHIDPYYGDTSYNQKFRGKATLTVDKSSSTAYMQLKSLTSEDSAVYYCVKGGYYGHWYFDVWGAGTTVTVSSAKTTAPSVYPLAPVCGDTTGSSVTLGCLVKGYFPEPVTLTWNSGSLSSGVHTFPAVLQSDLYTLSSSVTVTSSTWPSQSITCNVAHPASSTKVDKKEPRGPTIKPCPPCKCPAPNLLGGPSVFIFPPKIKDVLMISLSPIVTCVVVDVSEDDPDVQISWFVNNVEVHTAQTQTHREDYNSTLRVVSALPIQHQDWMSGKEFKCKVNNKDLPAPIERTISKPKGSVRAPQVYVLPPPEEEMTKKQVTLTCMVTDFMPEDIYVEWTNNGKTELNYKNTEPVLDSDGSYFMYSKLRVEKKNWVERNSYSCSVVHEGLHNHHTTKSFSRTPGK
light: MDMRAPAQILGFLLLLFPGTRCDIQMTQSPSSLSASLGERVSLTCRASQDIGSSLNWLQQGPDGTIKRLIYATSSLDSGVPKRFSGSRSGSDYSLTISSLESEDFVDYYCLQYVSSPPTFGAGTKLELKRADAAPTVSIFPPSSEQLTSGGASVVCFLNNFYPKDINVKWKIDGSERQNGVLNSWTDQDSKDSTYSMSSTLTLTKDEYERHNSYTCEATHKTSTSPIVKSFNRNEC
Question: Which results are given for B3?
Answer: Serum cofactor? [9]: Yes; Relative Strength of Reactivity on ELISA [10]: PS = PA = PI = PG = CL >> PE; affinity and specificity in PS-ELISA [11]: essentially the same as for 3G4; tumor growth [12]: slowed tumor growth to essentially the same degree
